Test results from US20180327367A1, “MACROCYCLIC BROAD SPECTRUM ANTIBIOTICS” (priority 2015, published 2018).
≈ marks a conversion by molar mass, not a printed value. Read-outs that look alike come from different tables or passages of the source.

Experiments:
Type in all cases: cell-based
[1] = system: Methicillin Resistant Staphylococcus aureus strain USA 300, NRS384; experiment: Minimum inhibitory concentration, broth micro-dilution (CLSI), S. aureus; conditions: Staphylococcus aureus, MRSA / NRS 384 / USA300, 22 h, read-out: MIC (μg/mL) S. aureus
Procedure: (§1) In vitro antimicrobial activity of each compound was determined by measuring minimal inhibitor concentrations (MICs) using the broth micro-dilution technique as approved by the Clinical and Laboratory Standards Institute (CLSI) (Methods for Dilution Antimicrobial Susceptibility Tests for Bacteria that Grow Aerobically; Approved Standard—Eighth Edition. CLSI document M07-A8. Wayne, Pa.: Clinical and Laboratory Standards; 2009). Antibacterial activity was measure against three strains of bacteria: a Methicillin Resistant Staphylococcus aureus strain USA 300, NRS384 (S. aureus); a strain of Escherichia coli MC4100 harboring the IMP4213 (E. coli IMP), which results in increased outer-membrane permeability (B Martin and Silhavy T. Imp/OstA is required for cell envelope biogenesis in Escherichia coli. (2002) Molecular Microbiology, 45(5), 1289-1302), and Escherichia coli ATCC 25922 (E. coli), a clinically relevant Gram-negative strain. Cells were inoculated onto plates of Trypyticase Soy Agar or Luria Agar respectively and grown at 35° C. for 20 hours. Inocula suspensions were prepared by scraping cells into 1 mL of testing media (cation adjusted Mueller Hinton Broth supplemented with 0.002% v/v Tween-80) and diluting to a final OD600 nm of 0.01.
(§2) Test compounds were prepared in DMSO at a concentration of 10 mg/mL. […] In protocol 2, the compound stocks were diluted into testing media at a concentration of 4 μg/mL and serial 2-fold dilutions were made in the same media, in 96-well U bottom microtiter dishes, for a total of 10 compound concentrations. In protocol 3, compound stocks were diluted into testing media at a concentration of 0.5 μg/mL, with serial 2-fold dilutions conducted as described above. […] Inocula suspensions were added to the 2-fold serial dilutions of test compounds to a final density of OD OD600 nm of 0.0005 and incubated at 35° C. for 22 hours.

[2] = system: Escherichia coli MC4100 harboring the IMP4213 (E. coli IMP); experiment: microbe, parasite or virus in culture; conditions: Escherichia coli, 22 h
Procedure: as §1, §2

[3] = system: Escherichia coli ATCC 25922; experiment: Minimum inhibitory concentration, broth micro-dilution (CLSI), E. coli; conditions: Escherichia coli, ATCC25922, 22 h, read-out: MIC (μg/mL) E. coli
Procedure: Cells were inoculated onto plates of Trypyticase Soy Agar or Luria Agar respectively and grown at 35° C. for 20 hours. Inocula suspensions were prepared by scraping cells into 1 mL of testing media (cation adjusted Mueller Hinton Broth supplemented with 0.002% v/v Tween-80) and diluting to a final OD600 nm of 0.01.
as §2

[4] = MRSA USA 300 NRS384, 35° C., 22 hours
[5] = read-out: MIC (μg/mL) E. coli IMP, E. coli MC4100 IMP4213, increased outer-membrane permeability, 35° C., 22 hours
[6] = E. coli ATCC 25922, 35° C., 22 hours

| SMILES | MIC [1, 4] [µg/mL] | MIC [2, 5] [µg/mL] | MIC [3, 6] [µg/mL] | MIC [1] [µg/mL] | MIC ([2]; read-out: MIC (μg/mL) E. coli IMP) [µg/mL] | MIC [3] [µg/mL] |
| --- | --- | --- | --- | --- | --- | --- |
| C[C@@H]1NC(=O)[C@@H](N(C)C(=O)[C@H](CCN)NC(=O)c2ccc3ccccc3c2)c2ccc(OCCN)c(c2)-c2cc(ccc2OCCN)C[C@@H](C(=O)NCC#N)NC1=O [Compound 125] | 2 (≈ 2.53 µM) | 0.25 (≈ 0.316 µM) | 16 (≈ 20.2 µM) |  |  |  |
| C[C@@H]1NC(=O)[C@@H](N(C)C(=O)[C@H](CCN)NC(=O)CCCC2CCCCC2)c2ccc(OCCN)c(c2)-c2cc(ccc2OCCN)C[C@@H](C(=O)NCC#N)NC1=O [Compound 126] | 0.5 (≈ 0.633 µM) | 0.25 (≈ 0.316 µM) | 32 (≈ 40.5 µM) |  |  |  |
| Cc1ccc(C(=O)N[C@@H](CCN)C(=O)N(C)[C@@H]2C(=O)N[C@@H](C)C(=O)N[C@H](C(=O)NCC#N)Cc3ccc(OCCN)c(c3)-c3cc2ccc3OCCN)c(C)c1 [Compound 128] | 4 (≈ 5.2 µM) | 0.5 (≈ 0.649 µM) | 16 (≈ 20.8 µM) |  |  |  |
| CCc1ccc(-c2ccc(C(=O)N[C@@H](CCCN)C(=O)N(C)[C@@H]3C(=O)N[C@@H](C)C(=O)N[C@H](C(=O)NCC#N)Cc4ccc(OCCN)c(c4)-c4cc3ccc4OCCN)c(C)c2)cc1 [Compound 152] | 0.031 (≈ 0.0355 µM) | 0.014 (≈ 0.016 µM) | 0.63 (≈ 0.721 µM) |  |  |  |
| Cc1nc(-c2ccc(C(C)(C)C)cc2)ncc1C(=O)N[C@@H](CCCN)C(=O)N(C)[C@@H]1C(=O)N[C@@H](C)C(=O)N[C@H](C(=O)NCC#N)Cc2ccc(OCCN)c(c2)-c2cc1ccc2OCCN [Compound 153] |  |  |  | 0.023 (≈ 0.0254 µM) | 0.0059 (≈ 0.00653 µM) | 0.19 (≈ 0.21 µM) |
| CCCCc1ccc(-c2ncc(C(=O)N[C@@H](CCCN)C(=O)N(C)[C@@H]3C(=O)N[C@@H](C)C(=O)N[C@H](C(=O)NCC#N)Cc4ccc(OCCN)c(c4)-c4cc3ccc4OCCN)c(C)n2)cc1 [Compound 154] | 0.012 (≈ 0.0133 µM) | 0.0059 (≈ 0.00653 µM) | 0.25 (≈ 0.277 µM) |  |  |  |
| CCCCc1ccc(-c2ncc(C(=O)N[C@@H](CCN)C(=O)N(C)[C@@H]3C(=O)N[C@@H](C)C(=O)N[C@H](C(=O)NCC#N)Cc4ccc(OCCN)c(c4)-c4cc3ccc4OCCN)c(C)n2)cc1 [Compound 156] | 0.016 (≈ 0.018 µM) | 0.0044 (≈ 0.00494 µM) | 0.063 (≈ 0.0708 µM) |  |  |  |
| Cc1nc(-c2ccc(-c3ccccc3)cc2)ncc1C(=O)N[C@@H](CCN)C(=O)N(C)[C@@H]1C(=O)N[C@@H](C)C(=O)N[C@H](C(=O)NCC#N)Cc2ccc(OCCN)c(c2)-c2cc1ccc2OCCN [Compound 158] | 0.031 (≈ 0.0341 µM) | 0.002 (≈ 0.0022 µM) | 0.11 (≈ 0.121 µM) |  |  |  |
| CCCc1ccc(-c2ncc(C(=O)N[C@@H](CCN)C(=O)N(C)[C@@H]3C(=O)N[C@@H](C)C(=O)N[C@H](C(=O)NCC#N)Cc4ccc(OCCN)c(c4)-c4cc3ccc4OCCN)c(C)n2)cc1 [Compound 161] | 0.031 (≈ 0.0354 µM) | 0.003 (≈ 0.00342 µM) | 0.13 (≈ 0.148 µM) |  |  |  |
| Cc1cc(-c2ccc(CC(C)C)cc2)ncc1C(=O)N[C@@H](CCN)C(=O)N(C)[C@@H]1C(=O)N[C@@H](C)C(=O)N[C@H](C(=O)NCC#N)Cc2ccc(OCCN)c(c2)-c2cc1ccc2OCCN [Compound 167] | 0.023 (≈ 0.0259 µM) | 0.0049 (≈ 0.00551 µM) | 0.14 (≈ 0.157 µM) |  |  |  |
| Cc1nc(-c2ccc(CC(C)C)cc2)ccc1C(=O)N[C@@H](CCN)C(=O)N(C)[C@@H]1C(=O)N[C@@H](C)C(=O)N[C@H](C(=O)NCC#N)Cc2ccc(OCCN)c(c2)-c2cc1ccc2OCCN [Compound 169] | 0.023 (≈ 0.0259 µM) | 0.0078 (≈ 0.00877 µM) | 0.13 (≈ 0.146 µM) |  |  |  |
| Cc1cc(-c2ccc(CC(C)C)cn2)ccc1C(=O)N[C@@H](CCN)C(=O)N(C)[C@@H]1C(=O)N[C@@H](C)C(=O)N[C@H](C(=O)NCC#N)Cc2ccc(OCCN)c(c2)-c2cc1ccc2OCCN [Compound 173] | 0.094 (≈ 0.106 µM) | 0.016 (≈ 0.018 µM) | 0.31 (≈ 0.349 µM) |  |  |  |
| Cc1cc(-c2ccc(CC(C)C)nn2)ccc1C(=O)N[C@@H](CCN)C(=O)N(C)[C@@H]1C(=O)N[C@@H](C)C(=O)N[C@H](C(=O)NCC#N)Cc2ccc(OCCN)c(c2)-c2cc1ccc2OCCN [Compound 180] | 1 (≈ 1.12 µM) | 0.38 (≈ 0.427 µM) | 8 (≈ 8.99 µM) |  |  |  |
| Cc1cc(-c2ccc(CC(C)C)nc2)ccc1C(=O)N[C@@H](CCN)C(=O)N(C)[C@@H]1C(=O)N[C@@H](C)C(=O)N[C@H](C(=O)NCC#N)Cc2ccc(OCCN)c(c2)-c2cc1ccc2OCCN [Compound 181] | 0.13 (≈ 0.146 µM) | 0.031 (≈ 0.0349 µM) | 2 (≈ 2.25 µM) |  |  |  |
| CCCCCCCc1cc(C)c(C(=O)N[C@@H](CCN)C(=O)N(C)[C@@H]2C(=O)N[C@@H](C)C(=O)N[C@H](C(=O)NCC#N)Cc3ccc(OCCN)c(c3)-c3cc2ccc3OCCN)c(C)c1 [Compound 189] | 0.031 (≈ 0.0357 µM) | 0.023 (≈ 0.0265 µM) | 0.19 (≈ 0.219 µM) |  |  |  |
| CCCCc1cccc(C(=O)N[C@@H](CCCN)C(=O)N(C)[C@@H]2C(=O)N[C@@H](C)C(=O)N[C@H](C(=O)NCC#N)Cc3ccc(OCCN)c(c3)-c3cc2ccc3OCCN)c1C [Compound 206] | 0.38 (≈ 0.46 µM) | 0.094 (≈ 0.114 µM) | 16 (≈ 19.4 µM) |  |  |  |
| CCCCc1ccc(C)c(C(=O)N[C@@H](CCCN)C(=O)N(C)[C@@H]2C(=O)N[C@@H](C)C(=O)N[C@H](C(=O)NCC#N)Cc3ccc(OCCN)c(c3)-c3cc2ccc3OCCN)c1 [Compound 207] | 1.5 (≈ 1.82 µM) | 0.063 (≈ 0.0763 µM) | 16 (≈ 19.4 µM) |  |  |  |
| CCCCCCCCc1ccc(C(=O)N[C@@H](CCN)C(=O)N(C)[C@@H]2C(=O)N[C@@H](C)C(=O)N[C@H](C(=O)NCC#N)Cc3ccc(OCCN)c(c3)-c3cc2ccc3OCCN)c(Br)c1 [Compound 211] | 0.063 (≈ 0.0675 µM) | 0.055 (≈ 0.059 µM) | 0.11 (≈ 0.118 µM) |  |  |  |
| Cc1cc(-c2ccc(CC(C)C)cc2)ccc1C(=O)N[C@@H](CC(N)=O)C(=O)N(C)[C@@H]1C(=O)N[C@@H](C)C(=O)N[C@H](C(=O)NCC#N)Cc2ccc(OCCN)c(c2)-c2cc1ccc2OCCN [Compound 240] | 0.19 (≈ 0.211 µM) | 0.094 (≈ 0.104 µM) | 1.5 (≈ 1.66 µM) |  |  |  |
| CCCCCCCCc1ccc(C(=O)N[C@@H](CCC(N)=O)C(=O)N(C)[C@@H]2C(=O)N[C@@H](C)C(=O)N[C@H](C(=O)NCC#N)Cc3ccc(OCCN)c(c3)-c3cc2ccc3OCCN)c(C)c1 [Compound 247] | 0.094 (≈ 0.105 µM) | 0.094 (≈ 0.105 µM) | 2 (≈ 2.23 µM) |  |  |  |
| Cc1cc(-c2ccc(CC(C)C)cc2)ccc1C(=O)N[C@@H](CCC(N)=O)C(=O)N(C)[C@@H]1C(=O)N[C@@H](C)C(=O)N[C@H](C(=O)NCC#N)Cc2ccc(OCCN)c(c2)-c2cc1ccc2OCCN [Compound 248] | 0.19 (≈ 0.207 µM) | 0.094 (≈ 0.103 µM) | 1 (≈ 1.09 µM) |  |  |  |
| CCCCCCCCc1ccc(C(=O)N[C@H](C)C(=O)N(C)[C@@H]2C(=O)N[C@@H](C)C(=O)N[C@H](C(=O)NCC#N)Cc3ccc(OCCN)c(c3)-c3cc2ccc3OCCN)c(C)c1 [Compound 251] | 4 (≈ 4.77 µM) | 4 (≈ 4.77 µM) | 8 (≈ 9.53 µM) |  |  |  |
| CCCCCCCCc1ccc(C(=O)NCC(=O)N(C)[C@@H]2C(=O)N[C@@H](C)C(=O)N[C@H](C(=O)NCC#N)Cc3ccc(OCCN)c(c3)-c3cc2ccc3OCCN)c(C)c1 [Compound 252] | 0.25 (≈ 0.303 µM) | 0.023 (≈ 0.0279 µM) | 2 (≈ 2.42 µM) |  |  |  |
| C[C@@H]1NC(=O)[C@@H](N(C)C(=O)[C@H](CCO)NC(=O)c2ccc(-c3ccc(Cl)cc3)cc2)c2ccc(OCCN)c(c2)-c2cc(ccc2OCCN)C[C@@H](C(=O)NCC#N)NC1=O [Compound 259] | 0.5 (≈ 0.586 µM) | 0.25 (≈ 0.293 µM) | 64 (≈ 75 µM) |  |  |  |
| Cc1cc(OCC2CCC(F)(F)CC2)ccc1C(=O)N[C@@H](CCN)C(=O)N(C)[C@@H]1C(=O)N[C@@H](C)C(=O)N[C@H](C(=O)NCC#N)Cc2ccc(OCCN)c(c2)-c2cc1ccc2OCCN [Compound 278] | 0.5 (≈ 0.553 µM) | 0.13 (≈ 0.144 µM) | 4 (≈ 4.42 µM) |  |  |  |
| C[C@@H]1NC(=O)[C@@H](N(C)C(=O)[C@H](CCN)NC(=O)c2ccc(OCC(C)(C)C)cc2Cl)c2ccc(OCCN)c(c2)-c2cc(ccc2OCCN)C[C@@H](C(=O)NCC#N)NC1=O [Compound 279] | 0.13 (≈ 0.151 µM) | 0.02 (≈ 0.0232 µM) | 0.5 (≈ 0.58 µM) |  |  |  |
| C=CCC(C)(C)COc1ccc(C(=O)N[C@@H](CCN)C(=O)N(C)[C@@H]2C(=O)N[C@@H](C)C(=O)N[C@H](C(=O)NCC#N)Cc3ccc(OCCN)c(c3)-c3cc2ccc3OCCN)c(C)c1 [Compound 285] | 0.063 (≈ 0.0726 µM) | 0.0078 (≈ 0.00899 µM) | 0.75 (≈ 0.864 µM) |  |  |  |
| Cc1cc(OCC2C[C@H]3CC[C@@H]2C3)ccc1C(=O)N[C@@H](CCN)C(=O)N(C)[C@@H]1C(=O)N[C@@H](C)C(=O)N[C@H](C(=O)NCC#N)Cc2ccc(OCCN)c(c2)-c2cc1ccc2OCCN (stereo partly drawn) [Compound 287] | 0.094 (≈ 0.107 µM) | 0.0078 (≈ 0.00886 µM) | 0.38 (≈ 0.432 µM) |  |  |  |
